The test deals with P388 leukemia ip, CD2F1 mice, survival T/C. Briefly: NCI In Vivo Anticancer Drug Screen. Data for tumor model P388 Leukemia (intraperitoneal) in CD2F1 (CDF1) mice. The following applies: endpoint: median survival time, higher = longer survival. The method, boiled down:
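Mice carrying the transplanted tumor received test compound or vehicle. Survival was recorded in each group, and the value is the treated-group measurement divided by that of the vehicle-treated control group.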

[1] abbreviates: dose: 12.5 mg/kg/injection, schedule: Q01DX005 (ip), vehicle: Klucel (hydroxypropylcellulose) (HPC).
Setting [2] is: dose: 25.0 mg/kg/injection, schedule: Q01DX005 (ip), vehicle: Klucel (hydroxypropylcellulose) (HPC).

Several values for one entry are separate records, joined by “and”; a condition that tells them apart may be missing. Equal entries are not always repeated. Inconclusive results and toxic doses are left out.

With `CC(C)c1cc(C=C2C(=O)c3ccccc3C2=O)cc(C(C)C)c1O`, the T/C (dose: 100.0 mg/kg/injection, schedule: Q04DX002 (ip), vehicle: saline) was 100 % of control; the T/C (dose: 200.0 mg/kg/injection, schedule: Q04DX002 (ip), vehicle: saline) is 100 % of control; the T/C (dose: 400.0 mg/kg/injection, schedule: Q04DX002 (ip), vehicle: saline) is 97 % of control.
As for `COc1cc(NCc2ccc3nc(N)nc(N)c3c2C)cc(OC)c1OC` (tested in a mixture with another compound), the T/C reads like this: (dose: 2.6 mg/kg/injection, schedule: Q03HX024 (ip), vehicle: water) 166 % of control; (dose: 5.0 mg/kg/injection, schedule: Q03HX024 (ip), vehicle: water) 182 % of control; (dose: 5.2 mg/kg/injection, schedule: Q03HX024 (ip), vehicle: water) 192 % of control; (dose: 6.25 mg/kg/injection, schedule: Q03HX008 (sc), vehicle: water) 114 % of control; (dose: 6.9 mg/kg/injection, schedule: Q01DX009 (oral), vehicle: water) 119 % of control; (dose: 10.0 mg/kg/injection, schedule: Q03HX024 (ip), vehicle: water) 201 % of control. For the same compound, the T/C is, setting by setting: (dose: 10.4 mg/kg/injection, schedule: Q03HX024 (ip), vehicle: water) 217 % of control; (dose: 12.5 mg/kg/injection, schedule: Q03HX008 (sc), vehicle: water) 118 % of control; (dose: 13.8 mg/kg/injection, schedule: Q01DX009 (ip), vehicle: water) 175 % of control; (dose: 13.8 mg/kg/injection, schedule: Q01DX009 (oral), vehicle: water) 156 % of control; (dose: 20.0 mg/kg/injection, schedule: Q03HX024 (ip), vehicle: water) 230 % of control; (dose: 20.8 mg/kg/injection, schedule: Q03HX024 (ip), vehicle: water) 233 % of control. For the same compound, the T/C (dose: 25.0 mg/kg/injection, schedule: Q01DX005 (ip), vehicle: water) is 153 % of control and 154 % of control; the T/C (dose: 25.0 mg/kg/injection, schedule: Q01DX005 (sc), vehicle: water) was 118 % of control; the T/C (dose: 25.0 mg/kg/injection, schedule: Q03HX008 (sc), vehicle: water) was 123 % of control; the T/C (dose: 27.7 mg/kg/injection, schedule: Q01DX009 (ip), vehicle: water) was 185 % of control; the T/C (dose: 27.7 mg/kg/injection, schedule: Q01DX009 (oral), vehicle: water) was 163 % of control; the T/C (dose: 40.0 mg/kg/injection, schedule: Q03HX024 (ip), vehicle: water) was 223 % of control. The T/C is, setting by setting: (dose: 41.6 mg/kg/injection, schedule: Q03HX024 (ip), vehicle: water) 103 % of control; (dose: 50.0 mg/kg/injection, schedule: Q01DX005 (ip), vehicle: water) 150 % of control and 160 % of control; (dose: 50.0 mg/kg/injection, schedule: Q01DX005 (iv), vehicle: water) 166 % of control; (dose: 55.5 mg/kg/injection, schedule: Q01DX009 (ip), vehicle: water) 208 % of control; (dose: 55.5 mg/kg/injection, schedule: Q01DX009 (oral), vehicle: water) 211 % of control; (dose: 62.5 mg/kg/injection, schedule: Q01DX001 (ip), vehicle: water) 109 % of control. Further, the T/C is 117 % of control (dose: 62.5 mg/kg/injection, schedule: Q01DX001 (iv), vehicle: water); 163 % of control (dose: 75.0 mg/kg/injection, schedule: Q03HX008 (sc), vehicle: water); 155 % of control and 173 % of control (dose: 100.0 mg/kg/injection, schedule: Q01DX005 (ip), vehicle: water); 163 % of control (dose: 100.0 mg/kg/injection, schedule: Q01DX005 (sc), vehicle: water); 98 % of control (dose: 111.1 mg/kg/injection, schedule: Q01DX009 (oral), vehicle: water); 115 % of control (dose: 125.0 mg/kg/injection, schedule: Q01DX001 (ip), vehicle: water). The T/C (dose: 200.0 mg/kg/injection, schedule: Q01DX005 (sc), vehicle: water) is 95 % of control; the T/C (dose: 50.0 micrograms per hour, schedule: Q#X X024 (sc), vehicle: water) was 120 % of control; the T/C (dose: 50.0 micrograms per hour, schedule: Q#X X048 (sc), vehicle: water) is 123 % of control; the T/C (dose: 50.0 micrograms per hour, schedule: Q#X X072 (sc), vehicle: water) is 163 % of control; the T/C (dose: 70.0 micrograms per hour, schedule: Q#X X006 (iv), vehicle: water) is 112 % of control; the T/C (dose: 85.0 micrograms per hour, schedule: Q#X X006 (iv), vehicle: water) was 121 % of control. The T/C was 118 % of control (dose: 100.0 micrograms per hour, schedule: Q#X X024 (sc), vehicle: water); 112 % of control (dose: 100.0 micrograms per hour, schedule: Q#X X120 (sc), vehicle: water); 181 % of control (dose: 200.0 micrograms per hour, schedule: Q#X X072 (sc), vehicle: water); 94 % of control (dose: 200.0 micrograms per hour, schedule: Q#X X120 (sc), vehicle: water).
Regarding `Cc1cccc(C(=O)OCCBr)c1`, the T/C (dose: 18.75 mg/kg/injection, schedule: Q01DX009 (ip), vehicle: saline sonified) is 104 % of control; the T/C (dose: 37.5 mg/kg/injection, schedule: Q01DX009 (ip), vehicle: saline sonified) is 109 % of control; the T/C (dose: 49.5 mg/kg/injection, schedule: Q01DX009 (ip), vehicle: saline sonified) was 109 % of control; the T/C (dose: 75.0 mg/kg/injection, schedule: Q01DX009 (ip), vehicle: saline sonified) is 104 % of control; the T/C (dose: 112.5 mg/kg/injection, schedule: Q01DX009 (ip), vehicle: saline sonified) was 104 % of control.
With `CC(=O)OC1CC2CCC1(C)C2(C)C` (centres undefined), the T/C is, setting by setting: (dose: 50.0 mg/kg/injection, schedule: Q01DX009 (ip), vehicle: saline with Tween-80) 109 % of control; (dose: 50.0 mg/kg/injection, schedule: Q04DX003 (ip), vehicle: saline with Tween-80) 105 % of control; (dose: 100.0 mg/kg/injection, schedule: Q01DX009 (ip), vehicle: saline with Tween-80) 104 % of control; (dose: 100.0 mg/kg/injection, schedule: Q04DX003 (ip), vehicle: saline with Tween-80) 100 % of control; (dose: 200.0 mg/kg/injection, schedule: Q04DX003 (ip), vehicle: saline with Tween-80) 100 % of control.
Consider `C1CN(/N=N/N2CCC2)C1`, for which the T/C by setting is: (dose: 6.25 mg/kg/injection, schedule: Q01DX005 (ip), vehicle: Klucel (hydroxypropylcellulose) (HPC)) 98 % of control; under setting [1], 100 % of control; under setting [2], 102 % of control.
On to `O=S(=O)(O)CC[S][Sn]([S]CCS(=O)(=O)O)([c]1ccccc1)[c]1ccccc1`, for which the T/C (dose: 3.75 mg/kg/injection, schedule: Q01DX005 (ip), vehicle: Klucel (hydroxypropylcellulose) (HPC)) is 153 % of control.
`O=c1nc2[nH]c3c4cccc5cccc(c3nc2c(=O)[nH]1)c54`: the T/C was 101 % of control and 108 % of control under setting [1]; 101 % of control and 98 % of control under setting [2]; 106 % of control and 110 % of control (2×) (dose: 50.0 mg/kg/injection, schedule: Q01DX005 (ip), vehicle: Klucel (hydroxypropylcellulose) (HPC)); 108 % of control and 113 % of control and 124 % of control (dose: 100.0 mg/kg/injection, schedule: Q01DX005 (ip), vehicle: Klucel (hydroxypropylcellulose) (HPC)).
Take `O=C(Nc1ccccc1)N1CCOCC1`: the T/C (dose: 60.0 mg/kg/injection, schedule: Q01DX005 (ip), vehicle: saline with Tween-80) is 106 % of control; the T/C (dose: 120.0 mg/kg/injection, schedule: Q01DX005 (ip), vehicle: saline with Tween-80) was 103 % of control; the T/C (dose: 240.0 mg/kg/injection, schedule: Q01DX005 (ip), vehicle: saline with Tween-80) is 95 % of control.

(Values after PubChem BioAssay AID330 (DTP/NCI, 2004).)
